# Test results published in article PMC5859971 (Genes & Development, 2018).
# Columns and labels:
# [1] = test system: SF3B1^R1074H and PHF5A^Y36 mutations; settings: strongest levels of resistance; ref Yokoi et al. 2011; Teng et al. 2017; cited from earlier work
# [2] = test system: splicing of Ad2.2 pre-mRNA substrate; test: In vitro splicing (IVS) assay, Ad2.2 substrate, HeLa S3 nuclear extracts, RT-qPCR; type: biochemical, human
# Text: (§1) A substrate competitive mechanism of action (MOA) would predict that weaker pre-mRNA substrates would be easier to inhibit than stronger substrates. To date, it has not been possible to evaluate substrate competition using traditional steady-state conditions because splicing reactions are thought to be single-turnover events in vitro, and therefore it is not possible to measure a KM for the pre-mRNA. […] Specifically, we engineered the strong in vitro splicing substrate Ad2.1 by enhancing the U2 snRNP base-pairing around the BPA found in the Ad2 substrate. We then engineered a weaker substrate, Ad2.2, by adding a decoy BPS lacking an extrahelical adenosine (Ad2.2) (Fig. 5A; Supplemental Vector NTI files; [Corrionero et al. 2011]). […] We then evaluated E7107 and several chemical probes to better understand their mechanism.
# (§2) Figure 5. […] (A) Base-pairing logic for IVS substrates. (BPRS) Branch point recognition sequence in U2 snRNA; (BPS) the BPS in the pre-mRNA. The Ad2 gene BPS sequence (UACUUAU) was modified (UACUAAU) to strengthen the U2 base-pairing interactions flanking the BPA, leading to the Ad2.1 substrate (BPA in red). The Ad2.2 sequence has the same BPS as Ad2 but also contains a 5′ decoy BPS sequence (lacking an extrahelical adenine) that can base-pair with the BPRS. The decoy BPS and suboptimal BPS overlap, which gives U2 at least two possibilities for possible base pairing, as indicated. […] (B) RT-qPCR time-course data showing product formation over time. […] (C) Representative IC50 curves for compound 6 using the two different substrates (Ad2.1 and Ad2.2).
# (§3) The Ad2-derived ([Pellizzoni et al. 1998]) sequence was cloned into the pGEM-3Z vector (Promega) using 5′ EcoRI and 3′ XbaI restriction sites. The Ad2 variant (Ad2.2) ([Seiler et al. 2018]) was cloned into pcDNA3.1(+) vector (Promega) using the same restriction sites. The plasmids were linearized using XbaI and used as DNA templates in the in vitro transcription reactions. The FtzΔi intron-less plasmid ([Luo and Reed 1999]) was linearized using EcoRI. All RNAs were in vitro transcribed and then purified using MegaScript T7 and MegaClear kits, respectively (Invitrogen). For splicing reactions used with the Ad2.2 substrate, […] reactions were prepared using 8 µg of nuclear extracts prepared from HeLa S3, a saturating excess of 2 ng of pre-mRNA substrate, 0.2 ng of FTZΔi, and varying concentrations of compounds or DMSO.
# [3] = test system: splicing of Ad2.1 pre-mRNA substrate; test: In vitro splicing (IVS) assay, Ad2.1 substrate, HeLa S3 nuclear extracts, RT-qPCR; type: biochemical, human; settings: Ad2.1 (strong) substrate
# Text: as §1, §2, §3
structure (smiles),measurement,setting,value
CCC(O)C(C)C1OC1CC(C)(O)C=CC=C(C)C1OC(=O)CC(O)CCC(C)(O)C(OC(=O)N2CCN(C3CCCCCC3)CC2)C=CC1C (stereo not shown) [Compound E7107],resistance conferred by SF3B1^R1074H and PHF5A^Y36C,[1],> 500 fold
same,inhibition of strong and weak IVS substrates,[2]; Ad2.1 and Ad2.2 substrates compared,inhibit both the strong and weak substrates equally well
same,IC50,[2]; Ad2.2 (weak) substrate,9.9 nM
same,IC50,[3],9.1 nM
